Biological target: human P2X7 receptor (Homo sapiens (Human), UniProt Q99572, R270H)
Assay: Evaluation of a human P2X7 receptor inhibitory activity (Yo-Pro uptake, BzATP stimulation, FLIPR TETRA)
Type: cell-based
Conditions: 1321N1 cells stably expressing human P2X7 receptor, Yo-Pro fluorescence
Procedure: Evaluation of a human P2X7 receptor inhibitory activity Stably expressing cell line (1321N1 cell transfected with the human P2X7 receptor gene (GenBank accession number NM_002562.5 including T606C and G952A SNP)) was used. The cells were seeded in a 384-well microtiter plate at a concentration of 8000 cells/well and cultured in the medium (10% fetal bovine serum, 25 mM HEPES, 1% penicillin and streptomycin in DMEM) for one day at 37° C. under 5% carbon dioxide atmosphere. After replacing with 20 μL of the HBSS buffer (20 mM HEPES, 55.6 mM D-glucose, 1× HBSS(−), pH7.4-7.5), 15 μL of 17.3 μM Yo-Pro solution in the HBSS buffer was added. The plate was placed in high-throughput cellular screening system FLIPR TETRA (Molecullar Devices, LLC.) and 15 μL of 130 μM BzATP solution in the HBSS buffer was added. Measurement of fluorescence intensity by FLIPR TETRA was started. After eight minutes, 15 μL of DMSO solutions containing different concentrations of the compound of the present invention as prepared by dilution with the HBSS buffer were dispensed to each well through the built-in automatic dispenser, and the measurement of fluorescence intensity was continued for 20 minutes. The maximum fluorescence intensity without the compound of the present invention is calculated as 0% inhibition and the maximum fluorescence intensity when the reference compound was added is calculated as 100% inhibition. Changing values of fluorescence intensity by the compound of the present invention were calculated by difference between maximum and minimum fluorescence intensity for 20 minutes. Inhibition ratios (%) were calculated from the following equation:
[formula] IC50 was calculated using logistic approximation.
As for IC50 value, value to below 10 nmol/L is represented as “A”, value from 10 nmol/L to below 100 nmol/L is represented as “B”, value from 100 nmol/L to below 500 nmol/L is represented as “C”, and value from 500 nmol/L to below 1 μmol/L is represented as “D”.

Chain of human P2X7 receptor (Q99572 whole entry R270H): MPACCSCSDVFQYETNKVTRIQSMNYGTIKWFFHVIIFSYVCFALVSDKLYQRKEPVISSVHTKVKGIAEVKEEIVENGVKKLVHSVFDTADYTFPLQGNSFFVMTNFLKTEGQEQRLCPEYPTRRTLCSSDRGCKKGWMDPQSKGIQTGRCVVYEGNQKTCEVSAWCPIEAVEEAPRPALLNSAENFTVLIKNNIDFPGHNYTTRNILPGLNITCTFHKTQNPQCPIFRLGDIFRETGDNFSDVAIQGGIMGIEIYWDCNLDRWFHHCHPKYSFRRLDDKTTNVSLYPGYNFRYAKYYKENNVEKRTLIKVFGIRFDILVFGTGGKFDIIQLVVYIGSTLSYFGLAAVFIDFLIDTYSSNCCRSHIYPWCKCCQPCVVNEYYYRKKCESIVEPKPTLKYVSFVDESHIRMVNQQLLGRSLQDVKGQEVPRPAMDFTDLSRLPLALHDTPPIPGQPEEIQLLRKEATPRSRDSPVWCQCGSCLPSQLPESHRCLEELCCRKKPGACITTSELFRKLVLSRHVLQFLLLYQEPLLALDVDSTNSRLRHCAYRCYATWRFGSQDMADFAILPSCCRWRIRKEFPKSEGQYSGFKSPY

SMILES | IC50 (class symbols) | IC50
COc1ccc(C)c(Nc2nc(=O)cc3n2C(c2ccccc2)CN3C)c1 (stereo not shown) [Compound I-0105] | 10 to 100 nM | 
Cc1cc(C)c(Nc2nc(=O)cc3n2C(c2ccccc2)CN3C)cc1C (stereo not shown) [Compound I-0106] |  | 11 nM
CCN1C(=O)N=C(Nc2cc(C)c(C)cc2C)N2C1=NCC2c1ccccc1 (stereo not shown) [Compound I-0107] |  | 25 nM
COc1ccc(Nc2nc(=O)c(F)c3n2C(c2cc(F)cc(F)c2)CC3)c(C)c1F (stereo not shown) [Compound I-0108] | 10 to 100 nM | 
CCN1C(=O)N=C(Nc2cc(C)c(C)cc2C)N2C1=NCC2c1ccc(F)cc1 (stereo not shown) [Compound I-0109] | 10 to 100 nM | 
COc1ccc(Nc2nc(=O)cc3n2C(c2ccccc2)CN3C)c(C)c1 (stereo not shown) [Compound I-0110] | < 10 nM | 
CCN1C(=O)N=C(Nc2cc(C)c(C)cc2C)N2C1=NCC2c1ccccc1 (stereo not shown) [Compound I-0111] | < 10 nM | 
CCN1C(=O)N=C(Nc2ccc(C)nc2C)N2C1=NCC2c1ccc(F)cc1 (stereo not shown) [Compound I-0112] | 500 to 1000 nM | 
CN1C(=O)N=C(Nc2cc(C3CC3)nn2C)N2C1=NCC2c1ccc(F)cc1 (stereo not shown) [Compound I-0113] | 500 to 1000 nM | 
Cc1ccc(NC2=NC(=O)N(C)C3=NCC(c4cc(F)cc(F)c4)N23)c(C)n1 (stereo not shown) [Compound I-0114] | 100 to 500 nM | 
Cc1ccc(NC2=NC(=O)N(C)C3=NCC(c4ccc(F)c(F)c4)N23)c(C)n1 (stereo not shown) [Compound I-0115] | 100 to 500 nM | 
COc1cc(NC2=NC(=O)N(C)C3=NCC(c4ccc(F)c(F)c4)N23)c(C)nc1OC (stereo not shown) [Compound I-0116] | 100 to 500 nM | 
CCN1C(=O)N=C(Nc2ccc(OC)nc2C)N2C1=NCC2c1ccc(F)cc1 (stereo not shown) [Compound I-0117] | 100 to 500 nM | 
CCN1C(=O)N=C(Nc2cc(OC)c(OC)nc2C)N2C1=NCC2c1ccc(F)cc1 (stereo not shown) [Compound I-0118] | 100 to 500 nM | 
COc1ccc(NC2=NC(=O)N(C)C3=NCC(c4ccc(F)cc4)N23)c(C)n1 (stereo not shown) [Compound I-0119] | 10 to 100 nM | 
Cc1ccc(NC2=NC(=O)N(C)C3=NCC(c4ccc(F)cc4)N23)c(C)n1 (stereo not shown) [Compound I-0120] | 100 to 500 nM | 
COc1cc(C)c(NC2=NC(=O)N(C)C3=NCC(c4ccc(F)cc4)N23)cc1OC (stereo not shown) [Compound I-0121] | 10 to 100 nM | 
COc1ccc(NC2=NC(=O)N(C)C3=NCC(c4cc(F)cc(F)c4)N23)c(C)c1 (stereo not shown) [Compound I-0122] | 10 to 100 nM | 
COc1cnc(C)c(Nc2nc(=O)c(F)c3n2C(c2cc(F)cc(F)c2)CC3)c1 (stereo not shown) [Compound I-0123] | 10 to 100 nM | 
COc1ccc(C)c(NC2=NC(=O)N(C)C3=NCC(c4ccc(F)c(F)c4)N23)c1 (stereo not shown) [Compound I-0124] | 10 to 100 nM | 
COc1ccc(NC2=NC(=O)N(C)C3=NCC(c4ccc(F)c(F)c4)N23)c(C)c1 (stereo not shown) [Compound I-0125] | 10 to 100 nM | 
COc1cc(C)c(NC2=NC(=O)N(C)C3=NCC(c4ccc(F)c(F)c4)N23)cc1OC (stereo not shown) [Compound I-0126] | 10 to 100 nM | 
COc1ccc(NC2=NC(=O)N(C)C3=NCC(c4ccc(F)c(F)c4)N23)c(C)n1 (stereo not shown) [Compound I-0127] | 10 to 100 nM | 

SMILES | IC50 (class symbols) | IC50
COc1cc(Nc2nc(=O)cc3n2C(c2cc(F)cc(F)c2)CN3)c(C)cc1F (stereo not shown) [Compound I-0128] | 10 to 100 nM | 
COc1ccc(C)c(NC2=NC(=O)N(C)C3=NCC(c4ccc(F)cc4)N23)c1 (stereo not shown) [Compound I-0129] | 10 to 100 nM | 
COc1ccc(NC2=NC(=O)N(C)C3=NCC(c4ccc(F)cc4)N23)c(C)c1 (stereo not shown) [Compound I-0130] | 10 to 100 nM | 
COc1ccc(C)c(NC2=NC(=O)N(C)C3=NCC(c4cc(F)cc(F)c4)N23)c1 (stereo not shown) [Compound I-0131] | 10 to 100 nM | 
COc1cc(C)c(NC2=NC(=O)N(C)C3=NCC(c4cc(F)cc(F)c4)N23)cc1OC (stereo not shown) [Compound I-0132] | 10 to 100 nM | 
COc1cc(NC2=NC(=O)N(C)C3=NCC(c4cc(F)cc(F)c4)N23)c(C)nc1OC (stereo not shown) [Compound I-0133] | 10 to 100 nM | 
COc1cc(Nc2nc(=O)cc3n2C(c2cc(F)cc(F)c2)CN3)c(C)cc1F (stereo not shown) [Compound I-0134] | < 10 nM | 
COc1nc(C)c(Nc2nc(=O)c(F)c3n2C(c2cc(F)cc(F)c2)CC3)cc1C (stereo not shown) [Compound I-0136] | 10 to 100 nM | 
COc1ccc(NC2=NC(=O)N(C)C3=NCC(c4cc(F)cc(F)c4)N23)c(C)c1F (stereo not shown) [Compound I-0137] | 10 to 100 nM | 
CCN1C(=O)N=C(Nc2cc(OC)c(OC)cc2C)N2C1=NCC2c1ccc(F)cc1 (stereo not shown) [Compound I-0138] | 10 to 100 nM | 
CCN1C(=O)N=C(Nc2cc(OC)ccc2C)N2C1=NCC2c1ccc(F)cc1 (stereo not shown) [Compound I-0139] | 10 to 100 nM | 
CCN1C(=O)N=C(Nc2ccc(OC)cc2C)N2C1=NCC2c1ccc(F)cc1 (stereo not shown) [Compound I-0140] | 10 to 100 nM | 
COc1nc(C)c(Nc2nc(=O)c(F)c3n2C(c2cc(F)cc(F)c2)CC3)cc1F (stereo not shown) [Compound I-0141] | 10 to 100 nM | 
COc1ccc(NC2=NC(=O)N(C)C3=NCC(c4cc(F)c(F)c(F)c4)N23)c(C)n1 (stereo not shown) [Compound I-0143] | 10 to 100 nM | 
COc1ccc(NC2=NC(=O)N(C)C3=NCC(c4cc(F)cc(F)c4)N23)c(C)n1 (stereo not shown) [Compound I-0144] | 10 to 100 nM | 
Cc1ccc(C#N)cc1NC1=NC(=O)N(C)C2=NCC(c3cc(F)cc(F)c3)N12 (stereo not shown) [Compound I-0146] | 10 to 100 nM | 
COc1cc(NC2=NC(=O)N(C)C3=NCC(c4cc(F)cc(F)c4)N23)c(C)cc1F (stereo not shown) [Compound I-0148] | 10 to 100 nM | 
COc1cc(NC2=NC(=O)N(C)C3=NCC(c4ccc(F)cc4)N23)c(C)cc1F (stereo not shown) [Compound I-0150] |  | 18 nM
COc1ccc(NC2=NC(=O)N(C)C3=NCC(c4ccc(F)cc4)N23)c(C)c1F (stereo not shown) [Compound I-0151] |  | 14 nM
COc1cc(C)c(Nc2nc(=O)c(F)c3n2C(c2ccc(F)cc2)CN3C)cc1OC (stereo not shown) [Compound I-0152] | 10 to 100 nM | 
COc1cc(C)c(Nc2nc(=O)nc3n2C(c2cc(F)c(F)c(F)c2)CN3)cc1OC (stereo not shown) [Compound I-0153] | 10 to 100 nM | 
CCc1nc(OC)ccc1NC1=NC(=O)N(C)C2=NCC(c3cc(F)cc(F)c3)N12 (stereo not shown) [Compound I-0155] | 10 to 100 nM | 
Cc1nc2cc(C)c(NC3=NC(=O)N(C)C4=NCC(c5cc(F)c(F)c(F)c5)N34)cc2s1 (stereo not shown) [Compound I-0156] | 10 to 100 nM | 

SMILES | IC50 (class symbols) | IC50
CCOc1cc(NC2=NC(=O)N(C)C3=NCC(c4cc(F)c(F)c(F)c4)N23)c(C)cc1F (stereo not shown) [Compound I-0157] | 10 to 100 nM | 
COc1nc(C)c(NC2=NC(=O)N(C)C3=NCC(c4cc(F)c(F)c(F)c4)N23)cc1C (stereo not shown) [Compound I-0159] | 10 to 100 nM | 
COc1ccc(Nc2nc(=O)c(F)c3n2C(c2ccc(F)cc2)CN3C)c(C)n1 (stereo not shown) [Compound I-0160] | 10 to 100 nM | 
COc1ccc(Nc2nc(=O)c(F)c3n2C(c2cc(F)c(F)c(F)c2)CN3)c(C)n1 (stereo not shown) [Compound I-0163] | 10 to 100 nM | 
CCOc1ccc(NC2=NC(=O)N(C)C3=NCC(c4cc(F)c(F)c(F)c4)N23)c(CC)n1 (stereo not shown) [Compound I-0165] | 10 to 100 nM | 
COc1ccc(C)c(Nc2nc(=O)c(F)c3n2C(c2cc(F)c(F)c(F)c2)CN3)c1 (stereo not shown) [Compound I-0166] | 10 to 100 nM | 
COc1cc(NC2=NC(=O)N(C)C3=NCC(c4cc(F)c(F)c(F)c4)N23)c(C)nc1OC (stereo not shown) [Compound I-0167] | 100 to 500 nM | 
COCCOc1ccc(C)c(NC2=NC(=O)N(C)C3=NCC(Cc4ccccc4)N23)c1 (stereo not shown) [Compound I-0169] | 10 to 100 nM | 
COc1cc(C)c(Nc2nc(=O)n(C)c3ncn(Cc4ccccc4)c23)cc1OC [Compound I-0170] | 10 to 100 nM | 
Cc1cc(F)c(OCCO)cc1NC1=NC(=O)N(C)C2=NCC(c3cc(F)c(F)c(F)c3)N12 (stereo not shown) [Compound I-0172] | 10 to 100 nM | 
COc1ccc(C)c(Nc2nc(=O)n(C)c3ncn(Cc4ccccc4)c23)c1 [Compound I-0173] | 500 to 1000 nM | 
COc1ccc(Nc2nc(=O)n(C)c3ncn(Cc4ccccc4)c23)c(C)c1 [Compound I-0174] | 100 to 500 nM | 
Cc1ncc(CO)cc1NC1=NC(=O)N(C)C2=NCC(c3cc(F)c(F)c(F)c3)N12 (stereo not shown) [Compound I-0175] | 10 to 100 nM | 
Cc1ccc(C)c(NC2=NC(=O)N(C)C3=NCC(Cc4ccccc4)N23)c1 (stereo not shown) [Compound I-0177] | 100 to 500 nM | 
Cc1ccc(CO)cc1NC1=NC(=O)NC2=NCC(c3cc(F)c(F)c(F)c3)N21 (stereo not shown) [Compound I-0178] | 10 to 100 nM | 
Cc1ccc(CO)cc1NC1=NC(=O)N(C)C2=NCC(Cc3ccccc3)N12 (stereo not shown) [Compound I-0179] | 100 to 500 nM | 
CCc1ccc(CO)cc1NC1=NC(=O)NC2=NCC(c3cc(F)c(F)c(F)c3)N21 (stereo not shown) [Compound I-0180] | 10 to 100 nM | 
Cc1ccc(CCCO)cc1NC1=NC(=O)N(C)C2=NCC(c3cc(F)c(F)c(F)c3)N12 (stereo not shown) [Compound I-0181] | 10 to 100 nM | 
COc1nc(C)c(NC2=NC(=O)N(C)C3=NCC(c4cc(F)c(F)c(F)c4)N23)cc1CO (stereo not shown) [Compound I-0182] | 10 to 100 nM | 
CCc1ccc(CO)cc1NC1=NC(=O)N(C)C2=NCC(Cc3ccccc3)N12 (stereo not shown) [Compound I-0183] | 100 to 500 nM | 
Cc1ccc(CC(F)(F)CO)cc1NC1=NC(=O)N(C)C2=NCC(c3cc(F)c(F)c(F)c3)N12 (stereo not shown) [Compound I-0184] | 10 to 100 nM | 
